Data published in patent US20240009150A1, “CAPSAICYNS IN THE TREATMENT OF LEAKY GUT” (AXICHEM AB [SE]/[SE], priority 2020, published 2024).
“Also recorded” adds a separate entry of the source. Marks after values point to notes of the source that are not given here.

Columns and labels:
[1] = tested on: Salmonella enterica subsp. enterica serovar Paratyphi C (ATCC® BAA 1714™); assay: Inhibition of biofilm formation, crystal violet staining assay (Example 5); type: cell-based; settings: for Biofilm (OD 595 nm): 24 hr; for Biofilm (OD 595 nm) / biofilm formed (CVSA), in words: 30° C.; for biofilm formed (CVSA), in words: 32 and 8 μg/ml
Description: (§1) Biofilm formation was quantified with modifications using the method described by Stepanovic et al. (Journal of Microbiological Methods, 2000, 40(2), 175-19) with modifications. Using a 96-well microplate duplicate the test solutions were filled at the above selected doses. Cultures were grown for 18 hr in LB at 30° C. and adjusted to OD 0.1 at 600 nm. 20 μL of the culture were added into each well and the remainder of the volume to 200 μL per well was filled with LB. Unused external wells were filled with 200 μL of sterile water to prevent evaporation.
(§2) After 24 hr of incubation, supernatants were discarded, and the wells were washed three times with 200 μL of sterile phosphate buffered saline (PBS). Bacteria adhered to the wells were fixed with 200 μL of methanol for 15 min, the methanol was discarded, and the plates dried at 25° C.
(§3) Each well was stained with 200 μL of 0.3% (w/v) crystal violet solution for 5 min at 25° C. Crystal violet excess was pipetted out, and the wells were rinsed five times with sterile PBS. 200 μL of 33% (v/v) glacial acetic acid were added to the wells for 30 min to solubilise the dye adhered to the cell walls. Optical density (OD) was measured at 595 nm using a microplate spectrophotometer as a direct measure of biofilm formation. P. aeruginosa in 3% DMSO will be used as the negative control.
A stock solution of 1000 μg of phenylcapsaicin and capsaicin was prepared by dissolving 1000 μg in 100 μl of ethanol and 900 μl of sterile water. The stock solutions were sequentially diluted with double and then quadruple volumes of solvent (10% aqueous ethanol solution) to yield 500/125/31.25 (32)/7.81 (8) μg/ml test solutions.
(§4) ATCC® BAA 1714™ was used to determine the biofilm inhibition activity. Inducer N-hexanoyl homoserine lactone (C6-HSL) was purchased from Sigma-Aldrich. ATCC® BAA 1714™ was cultivated in Luria-Bertani (LB) medium (LB, 5 g yeast extract, 10 g tryptone, 5 g NaCl, 1 L water) at 37° C. overnight under aerobic conditions.
Crystal violet staining assay was performed as in Experiment 3, using ATCC® BAA 1714™ in 3% DMSO as the control.

[2] = tested on: Salmonella enterica subsp. enterica serovar Paratyphi C (ATCC® BAA1714™); assay: Inhibition of biofilm formation with different capsaicyn compounds, crystal violet staining assay (Example 6); type: cell-based; settings: for Biofilm (OD 595 nm): 24 hr; for interference with the biofilm readings, in words: 125 μg/ml dose
Description: as §1, §2, §3
A stock solution of 500 μg of phenylcapsaicin, capsaicin, compound a, compound b, compound c, was prepared by dissolving 500 μg in 100 μl of ethanol and 900 μl of sterile water. The stock solutions were sequentially diluted with quadruple volumes of solvent (10% aqueous ethanol solution) to yield 125/31.25 (32)/7.81 (8)/1.95 (2) μg/ml test solutions.
as §4, with “BAA1714™” for “BAA 1714™”
Crystal violet staining assay was performed as in Experiment 3, using ATCC® BAA1714™ in 3% DMSO as the control.

[3] = Rage Paulsen et al., Toxicology Research and Application 2018; cited from earlier work

Row | SMILES | Biofilm (OD 595 nm) ([1]; 7.81 μg/mL) | Biofilm (OD 595 nm) ([1]; 31.125 μg/mL) | biofilm formed (CVSA), in words [1] | biofilm formation inhibition, conclusion in words ([1]; any dose tested) | Biofilm (OD 595 nm) ([2]; 2 μg/mL, 30° C.) | Biofilm (OD 595 nm) ([2]; 8 μg/mL, 30° C.) | Biofilm (OD 595 nm) ([2]; 32 μg/mL, 30° C.) | interference with the biofilm readings, in words [2] | biofilm formation inhibition activity, in words ([2]; any dose tested (125, 32, 8, 2 μg/ml)) | biofilm formed (CVSA), in words ([2]; 32, 8 and 2 μg/ml, 30° C.) | safety with regards to gene mutations and chromosomal damage [3] | systemic toxicity [3]
1 | COc1cc(CNC(=O)CCCC/C=C/C(C)C)ccc1O [Capsaicin, (E)-N-(4-hydroxy-3-methoxybenzyl)-8-methylnon-6-enamide, reference compound] | 8.5^a OD 595 nm | 8.1^a OD 595 nm | did not show any reduction of biofilm formation | did not exhibit any biofilm formation inhibition | 8.2 | 8.6 | 8.2 | antibacterial interference | did not show reduction biofilm formation | – | – | –
2 | COc1cc(CNC(=O)CCCCC#Cc2ccccc2)ccc1O [Phenylcapsaicin, N-[(4-hydroxy-3-methoxyphenyl)methyl]-7-phenylhept-6-ynamide] | 2.9^b OD 595 nm | 3.2^b OD 595 nm | significantly reduced; also recorded: good inhibitor of biofilm formation | – | 2.5 | 2.8 | 3.4 | antibacterial interference | – | significantly reduced; also recorded: good inhibitor of biofilm formation | safe | low systemic toxicity
